One series concerns WT HIV-1 (strain IIIB). The series is described as follows: microbe, parasite or virus in culture. The class given is cell-based. On the procedure: (§1) The newly synthesized compounds were evaluated for their potency and cytotoxicity against the WT HIV-1 (strain IIIB) in MT-4 cells using the MTT method. The biological evaluation results are represented as EC50 values (anti-HIV-1 activity), CC50 values (cytotoxicity), and SI values (selectivity index, CC50/EC50 ratio).

Another series relates to MT-4 cells. The series is described as follows: Cytotoxicity in uninfected MT-4 cells, MTT method. It is filed as cell-based. To be noted: uninfected MT-4 cells; viability reduced by 50%. On the procedure:
as §1
On the technique in general: Tetrazolium dyes change colour on reduction, which living cells bring about.

The subject of series [1] is L100I mutant HIV-1 strain. The series is described as follows: Anti-HIV-1 activity against L100I mutant strain in MT-4 cells. It is filed as cell-based.
In series [2] the test system is E138K mutant HIV-1 strain. The series is described as follows: Anti-HIV-1 activity against E138K mutant strain in MT-4 cells. It is filed as cell-based.
The test system of series [3] is Y181C mutant HIV-1 strain. The series can be described thus: Anti-HIV-1 activity against Y181C mutant strain in MT-4 cells. It is filed as cell-based.
In series [4] the test system is K103N mutant HIV-1 strain. The series can be described thus: Anti-HIV-1 activity against K103N mutant strain in MT-4 cells. It is filed as cell-based.
Series [5] concerns Y188L mutant HIV-1 strain. The series can be described thus: Anti-HIV-1 activity against Y188L mutant strain in MT-4 cells. It is filed as cell-based.
Series [6] concerns F227L + V106A double RT mutant HIV-1 strain. The series is described as follows: Anti-HIV-1 activity against F227L + V106A double mutant strain in MT-4 cells. The class given is cell-based.
The subject of series [7] is K103N + Y181C double RT mutant HIV-1 strain. The series is described as follows: Anti-HIV-1 activity against K103N + Y181C double mutant strain in MT-4 cells. The class given is cell-based.
Another series deals with WT HIV-1 RT (Human immunodeficiency virus type 1 group M subtype B, UniProt P03366). The series can be described thus: Enzymatic assay against WT HIV-1 RT. To be noted: read-out: IC50 WT HIV-1 RT polymerase activity.
The subject of a further series is WT HIV-1. The following applies: cited from earlier work.
The conditions of series [8]: cited from earlier work.
A short description of series [9]: Cytotoxicity in uninfected MT-4 cells, MTT method. The class given is cell-based. The following applies: human. On the procedure:
as §1

Where [10] appears, read: MT-4 cells, protection against virus-induced cytopathicity by 50%, mean of at least three experiments, read-out: EC50 HIV-1 IIIB.
Setting [11] is: MT-4 cells, read-out: EC50 L100I.
Where [12] appears, read: MT-4 cells, read-out: EC50 E138K.
Setting [13] is: MT-4 cells, read-out: EC50 Y181C.
Setting [14] is: MT-4 cells, read-out: EC50 K103N.
The mark [15] stands for this setting: MT-4 cells, read-out: EC50 Y188L.
Setting [16] is: MT-4 cells, read-out: EC50 F227L + V106A.
[17] abbreviates: MT-4 cells, read-out: EC50 K103N + Y181C.
Where [18] appears, read: Human immunodeficiency virus 1, IIIB, MT4, MT-4 cells, protection against virus-induced cytopathicity by 50%, mean of at least three experiments, read-out: EC50 HIV-1 IIIB.
[19] abbreviates: Human immunodeficiency virus 1, MT4, read-out: EC50 L100I.
[20] abbreviates: Human immunodeficiency virus 1, MT4, read-out: EC50 E138K.
Setting [21] is: Human immunodeficiency virus 1, MT4, read-out: EC50 Y181C.
The mark [22] stands for this setting: Human immunodeficiency virus 1, MT4, read-out: EC50 K103N.
Setting [23] is: Human immunodeficiency virus 1, MT4, read-out: EC50 Y188L.
The mark [24] stands for this setting: Human immunodeficiency virus 1, MT4, read-out: EC50 F227L + V106A.
Setting [25] is: Human immunodeficiency virus 1, MT4, read-out: EC50 K103N + Y181C.
The mark [26] stands for this setting: uninfected MT-4 cells, viability reduced by 50%, read-out: CC50.
Where [27] appears, read: statement in the introduction, no reference given.

Structures are written as SMILES. Read-outs that look alike come from different tables or passages of the source.

Protocol for WT HIV-1 RT: The enzymatic assay against WT HIV-1 RT was conducted for most compounds (Table 2).

For orientation: EC50 means the concentration needed to bring the measured effect to its halfway point. By IC50 is commonly meant the concentration needed to halve the response being measured. `N#Cc1ccc(Nc2nccc(C(C#N)c3ccc(-c4cccc(F)c4)cc3F)n2)cc1` (racemic) [Compound 10k, (±)-4-((4-(cyano(3,3′-difluoro-[1,1′-biphenyl]-4-yl)methyl)pyrimidin-2-yl)amino)benzonitrile]: the EC50 was 560 ± 190 nM in the series with WT HIV-1 (strain IIIB) (setting [10]); 9290 ± 570 nM in series [1] (setting [11]); 3360 ± 400 nM in [2] (setting [12]); 9150 ± 870 nM in [3] (setting [13]); greater than 30700 nM in series [4] (setting [14]); greater than 30700 nM in [5] (setting [15]). Moreover, the EC50 in series [6] (setting [16]) and in series [7] (setting [17]) was greater than 30700 nM in each case. For the same compound, in the series with MT-4 cells, the CC50 amounted to 30700 ± 1790 nM. Moreover, at WT HIV-1 RT, the IC50 worked out at 188 ± 172 nM.

With `N#Cc1ccc(Nc2nccc(C(C#N)c3ccc(-c4ccccc4Cl)cc3F)n2)cc1` (racemic) [Compound 10m, (±)-4-((4-((2′-chloro-3-fluoro-[1,1′-biphenyl]-4-yl)(cyano)methyl)pyrimidin-2-yl)amino)benzonitrile], the EC50 in the series on WT HIV-1 (strain IIIB) (setting [10]) is 280 ± 40 nM; in [1] (setting [11]), 5610 ± 1510 nM; in series [2] (setting [12]) it was 2430 ± 500 nM; in [3] (setting [13]), 4530 ± 1470 nM; in [4] (setting [14]) it was 5340 ± 930 nM; in series [5] (setting [15]) it was greater than 22500 nM. Besides, the EC50 in [6] (setting [16]) and in [7] (setting [17]) was greater than 22500 nM in each case. The compound also gave a CC50 in the series with MT-4 cells of 22500 ± 4700 nM. For the same compound, the IC50 at WT HIV-1 RT stood at 74 ± 24 nM.

For the compound `Cc1cc(C(C#N)c2ccccc2F)nc(Nc2ccc(C#N)cc2)n1` (stereo not shown) [Compound 1], the EC50 in the series with WT HIV-1 (read-out: EC50 anti-HIV potency) is 1.8 nM.

On to `Cc1cc(-c2ccc(C#N)cc2)cc(C)c1Nc1ccnc(Nc2ccc(C#N)cc2)n1` [Compound 2], for which, in the series with WT HIV-1 (read-out: EC50 WT HIV-1), the EC50 is 1 ± 0.6 nM. Further, the CC50 in [8] (lead compound) is 2100 nM.

As to `Nc1ccn([C@@H]2CS[C@H](CO)O2)c(=O)n1` [Compound 3TC, lamivudine, reference compound], the EC50 came out at 7880 ± 3150 nM with WT HIV-1 (strain IIIB) (setting [18]); 1960 ± 290 nM in [1] (setting [19]); 5060 ± 900 nM in series [2] (setting [20]); 4740 ± 1310 nM in [3] (setting [21]); 3980 ± 760 nM in series [4] (setting [22]); 3420 ± 950 nM in [5] (setting [23]). Also, the EC50 came out at 2690 ± 870 nM in series [6] (setting [24]) and 5500 ± 1310 nM in [7] (setting [25]). The CC50 in series [9] is greater than 87200 nM.

In the case of `Cc1cc(C#N)cc(C)c1Oc1nc(Nc2ccc(C#N)cc2)nc(N)c1Br` [ETR, etravirine, reference compound], the EC50 stood at 4.5 ± 1 nM with WT HIV-1 (strain IIIB) (Human immunodeficiency virus 1, MT4, read-out: EC50 HIV-1 IIIB); 8 ± 2 nM in series [1] (setting [19]); 8 ± 4 nM in series [2] (setting [20]); 17 ± 3 nM in series [3] (setting [21]); 3 ± 1 nM in series [4] (setting [22]); 17 ± 6 nM in series [5] (setting [23]). Further, the figures for the EC50 in [6] (setting [24]) and in [7] (setting [25]) were 14 ± 5 nM and 40 ± 10 nM, respectively. Moreover, the CC50 is greater than 4600 nM in series [9] (setting [26]) and roughly 6000 nM in series [8] (setting [27]).

Consider `Cc1ccnc2c1NC(=O)c1cccnc1N2C1CC1` [NVP, nevirapine, reference compound], for which the EC50 with WT HIV-1 (strain IIIB) (setting [18]) is 200 ± 100 nM; in [1] (setting [19]) it was 980 ± 390 nM; in [2] (setting [20]) it was 200 ± 150 nM; in series [3] (setting [21]) it was 6070 ± 1550 nM; in series [4] (setting [22]), 4700 ± 630 nM; in series [5] (setting [23]), no less than 4620 nM. In addition, the concentration giving a half-maximal response (EC50) was no less than 4280 nM in series [6] (setting [24]) and greater than 15000 nM in series [7] (setting [25]). Besides, the CC50 in series [9] (setting [26]) was greater than 15000 nM.

Regarding `Cc1cc(/C=C/C#N)cc(C)c1Nc1ccnc(Nc2ccc(C#N)cc2)n1` [RPV, rilpivirine, reference compound], the EC50 in the series with WT HIV-1 (strain IIIB) (setting [18]) came to 1.6 ± 0.3 nM; in [1] (setting [19]), 2 ± 1 nM; in series [2] (setting [20]), 3 ± 1 nM; in [3] (setting [21]), 3 ± 1 nM; in series [4] (setting [22]), 1 ± 0.2 nM; in series [5] (setting [23]) it was 30 ± 9 nM. The figures for the EC50 in series [6] (setting [24]) and in series [7] (setting [25]) were 44 ± 12 nM and 9 ± 2 nM, respectively. Also, the CC50 is 5890 ± 310 nM in [9] (setting [26]) and roughly 6000 nM in series [8] (setting [27]).

Values taken from paper PMC7179183, “Design of Biphenyl-Substituted Diarylpyrimidines with a Cyanomethyl Linker as HIV-1 NNRTIs via a Molecular Hybridization Strategy” (Molecules, 2020).
